ChEMBL document CHEMBL1156260, “Through the "gatekeeper door": exploiting the active kinase conformation” (J Med Chem, 2010)

Target: Serine/threonine-protein kinase PLK1 (Homo sapiens, UniProt P53350)
Sequence (P53350 whole entry): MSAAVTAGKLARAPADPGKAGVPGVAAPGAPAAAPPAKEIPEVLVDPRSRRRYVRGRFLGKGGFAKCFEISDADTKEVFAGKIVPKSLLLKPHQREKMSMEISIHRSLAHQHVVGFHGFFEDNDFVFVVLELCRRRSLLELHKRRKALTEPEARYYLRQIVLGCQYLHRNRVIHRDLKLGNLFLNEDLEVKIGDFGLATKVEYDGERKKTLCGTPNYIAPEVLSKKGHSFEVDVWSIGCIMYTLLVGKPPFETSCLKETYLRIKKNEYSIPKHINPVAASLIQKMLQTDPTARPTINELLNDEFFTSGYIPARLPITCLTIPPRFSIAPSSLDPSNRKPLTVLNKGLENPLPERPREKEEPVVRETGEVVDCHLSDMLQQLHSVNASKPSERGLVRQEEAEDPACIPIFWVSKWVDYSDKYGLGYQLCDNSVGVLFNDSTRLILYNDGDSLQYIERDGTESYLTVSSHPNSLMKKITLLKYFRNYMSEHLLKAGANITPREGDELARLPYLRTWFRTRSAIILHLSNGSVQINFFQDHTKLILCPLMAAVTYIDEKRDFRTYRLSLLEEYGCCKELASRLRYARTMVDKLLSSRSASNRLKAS

An IC50 of 720 nM was found for `Cc1cc(NC(=O)Nc2ncc(CCNc3cc(Nc4nnc[nH]4)ncn3)s2)c(C(F)(F)F)o1` in this work.
